Columns and labels:
HOP-62 = experiment: NCI in vitro cell line screen (SRB), Non-Small Cell Lung Cancer HOP-62; format: cell-based
Protocol: (§1) For exemplary purposes, an embodiment of the present invention was tested for activity with respect to certain cancer cell lines. The following Tables show results from in vitro 60-cell line antitumor testing from the US National Cancer Institute Developmental Therapeutics Program (NCI-DTP) on compound 2. The testing was in connection with the NCI's In Vitro Cell Line Screening Project (IVCLSP). Detailed information regarding the experiments and their interpretation is available from the NCI.

HIF-1α protein = experiment: Western blot, hypoxic induction of nuclear HIF-1α protein in T47D cells; format: cell-based, human; settings: T47D nuclear extract, hypoxia 4 hr
Protocol: Due to the low abundance of HIF-1α protein in whole cell extract, nuclear extract is prepared and the level of HIF-1α protein in the nuclear extract determined by Western blot. Briefly, exponentially grown T47D cells are exposed to compound 2 for 30 minutes. […] Nuclear extracts are prepared from control and treated cells, separated on a SDS/PAGE gel, the separated proteins transferred to a nitrocellulose membrane, incubated with the primary antibodies (anti-HIF-1α, and anti-HIF-1β monoclonal antibodies, Novus Biologicals), secondary antibody biotinylated anti-mouse immunoglobulin G and Vectastain ABC reagent (Vector Laboratories), and developed using ECL reagents (Amersham Biosciences). […] No change in HIF-1β protein level is observed across the treatments. It is reasonable to conclude that the selectivity of compound 2 towards hypoxia-activated HIF-1 is caused by selective blockade of the hypoxic induction of HIF-1 protein.
To investigate the mechanism of action, the effects of these compounds on hypoxic stabilization of HIF-1α protein are examined in T47D cells using Western blot.

UACC-62 = experiment: NCI in vitro cell line screen (SRB), Melanoma UACC-62; format: cell-based
Protocol: as §1

K-562 = experiment: NCI in vitro cell line screen (SRB), Leukemia K-562; format: cell-based
Protocol: as §1

[1] = Homo sapiens, read-out: LC50 (the source's name)

For `COc1ccc([C@@H](O)[C@@H](C)Oc2ccc([C@H]3O[C@H](c4ccc(O[C@H](C)[C@H](O)c5ccc6c(c5)OCO6)c(OC)c4)[C@H](C)[C@H]3C)cc2OC)cc1OC` [Compound 2, manassantin B], which TGI (HOP-62) is on record?
Its TGI is >1.00E−4 Molar.

What about the GI50 (HOP-62; Homo sapiens) of the same molecule?
Its GI50 is 57.3 µM.

And the CC50 (HOP-62; [1])?
The CC50 was > 100 µM.

What about the “Mean Optical Densities” value (HOP-62; Log10 Concentration −4.0 Molar) of the same molecule?
Its value is 0.739.

And the “Percent Growth” value (HOP-62; Log10 Concentration −4.0 Molar)?
Its value is 44%.

And the “Mean Optical Densities” value (HOP-62; Log10 Concentration −5.0 Molar)?
Its value is 0.893.

And the “Percent Growth” value (HOP-62; Log10 Concentration −5.0 Molar)?
The value was 68%.

And the “Mean Optical Densities” value (HOP-62; Log10 Concentration −6.0 Molar)?
Its value is 0.971.

And the “Percent Growth” value (HOP-62; Log10 Concentration −6.0 Molar)?
The value was 81%.

And the “Mean Optical Densities” value (HOP-62; Log10 Concentration −7.0 Molar)?
The value was 0.982.

What about the “Percent Growth” value (HOP-62; Log10 Concentration −7.0 Molar) of the same molecule?
The value was 82%.

And the “Mean Optical Densities” value (HOP-62; Log10 Concentration −8.0 Molar)?
Its value is 0.924.

What about the “Percent Growth” value (HOP-62; Log10 Concentration −8.0 Molar) of the same molecule?
The value was 73%.

And the “hypoxic induction of HIF-1α protein” value (HIF-1α protein)?
Its value is “specifically inhibits”.

And the TGI (UACC-62)?
The TGI was >1.00E−4 Molar.

What about the GI50 (UACC-62; Homo sapiens) of the same molecule?
The GI50 was 4.47 µM.

What about the CC50 (UACC-62; [1]) of the same molecule?
Its CC50 is > 100 µM.

And the “Mean Optical Densities” value (UACC-62; Log10 Concentration −4.0 Molar)?
Its value is 0.573.

And the “Percent Growth” value (UACC-62; Log10 Concentration −4.0 Molar)?
The value was 16%.

And the “Mean Optical Densities” value (UACC-62; Log10 Concentration −5.0 Molar)?
Its value is 0.697.

And the “Percent Growth” value (UACC-62; Log10 Concentration −5.0 Molar)?
Its value is 35%.

And the “Mean Optical Densities” value (UACC-62; Log10 Concentration −6.0 Molar)?
Its value is 0.971.

What about the “Percent Growth” value (UACC-62; Log10 Concentration −6.0 Molar) of the same molecule?
Its value is 78%.

What about the “Mean Optical Densities” value (UACC-62; Log10 Concentration −7.0 Molar) of the same molecule?
Its value is 1.072.

What about the “Percent Growth” value (UACC-62; Log10 Concentration −7.0 Molar) of the same molecule?
The value was 93%.

And the “Mean Optical Densities” value (UACC-62; Log10 Concentration −8.0 Molar)?
Its value is 1.038.

What about the “Percent Growth” value (UACC-62; Log10 Concentration −8.0 Molar) of the same molecule?
The value was 88%.

What about the TGI (K-562) of the same molecule?
Its TGI is >1.00E−4 Molar.

What about the LC50 (concentration killing 50% of cells) (K-562; Homo sapiens, K562) of the same molecule?
The LC50 (concentration killing 50% of cells) was > 100 µM.

And the “Mean Optical Densities” value (K-562; Log10 Concentration −4.0 Molar)?
The value was 0.327.

What about the “Percent Growth” value (K-562; Log10 Concentration −4.0 Molar) of the same molecule?
The value was 28%.

What about the “Mean Optical Densities” value (K-562; Log10 Concentration −5.0 Molar) of the same molecule?
The value was 0.394.

And the “Percent Growth” value (K-562; Log10 Concentration −5.0 Molar)?
The value was 37%.

What about the “Mean Optical Densities” value (K-562; Log10 Concentration −6.0 Molar) of the same molecule?
Its value is 0.561.

What about the “Percent Growth” value (K-562; Log10 Concentration −6.0 Molar) of the same molecule?
Its value is 61%.

And the “Mean Optical Densities” value (K-562; Log10 Concentration −7.0 Molar)?
The value was 0.500.

What about the “Percent Growth” value (K-562; Log10 Concentration −7.0 Molar) of the same molecule?
Its value is 53%.

What about the “Mean Optical Densities” value (K-562; Log10 Concentration −8.0 Molar) of the same molecule?
The value was 0.470.

What about the “Percent Growth” value (K-562; Log10 Concentration −8.0 Molar) of the same molecule?
Its value is 48%.

— patent publication US20090137664A1, “SAURURUS CERNUUS COMPOUNDS THAT INHIBIT CELLULAR RESPONSES TO HYPOXIA” (priority 2003, published 2009)
